# In patent US20040214832A1, “Piperazine derivative renin inhibitors” (priority 2003, published 2004):
# pIC50: −log10 of the molar value.
# Molecular target: T1, human renin (Homo sapiens, UniProt P00797)
# T1 sequence (P00797 67-406): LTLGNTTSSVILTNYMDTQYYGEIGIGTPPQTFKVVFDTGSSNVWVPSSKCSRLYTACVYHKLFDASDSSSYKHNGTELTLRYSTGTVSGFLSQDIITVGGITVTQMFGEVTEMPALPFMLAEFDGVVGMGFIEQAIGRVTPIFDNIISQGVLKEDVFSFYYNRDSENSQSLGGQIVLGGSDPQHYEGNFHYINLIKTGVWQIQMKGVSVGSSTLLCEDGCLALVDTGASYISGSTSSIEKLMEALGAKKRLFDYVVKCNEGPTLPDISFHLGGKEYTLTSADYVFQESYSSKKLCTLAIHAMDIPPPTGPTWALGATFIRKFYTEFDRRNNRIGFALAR
# Assay: Determination of renin IC50 by tGFP FRET assay
# Format: biochemical
# Conditions: Human recombinant renin, tandem GFP substrate 650 nM, 60 min incubation with compound, pH 7.4, 11-point curve
# From the text: Determination of Renin IC50 by tGFP FRET Assay
# The tGFP FRET (fluorescence resonance energy transfer) assay utilizes a tandem GFP substrate (60 kDa, Discovery Technologies) containing nine amino acid recognition sequences for human renin flanked by two GFP proteins. The assay is used to determine the ability of a compound to act as an inhibitor of renin enzymatic activity by determination of that concentration of test compound that inhibits by 50% (IC50) the ability of renin to cleave the tandem GFP substrate. The IC50 values are determined over an 11-point curve at concentrations of 100 μM to 1 pM. Each compound concentration used to construct the curve was dependent on renin inhibitor potency. For example, subnanomolar IC50 values were determined over an 11-point curve at concentrations of 10 μM to 1 pM. All other IC50 values were determined over an 11-point curve at concentrations of 100 μM to 0.0065 μM. The concentrations were achieved by diluting a 9.1 nM stock of Human recombinant renin in the appropriate amount of buffer containing 50 mM HEPES, 1 mM EDTA, 1% PEG (8000 MW), 1 mM DTT, 0.1% BSA, pH 7.4 to achieve the final concentration of 50.4 μIU. The tGFP substrate stock solution of 43 μM was diluted with the appropriate amount of the above buffer to obtain the final concentration of 650 nM. In addition, 1 μl of the compound is diluted in dimethylsulfoxide (DMSO) to represent an […] log scale (5% final). The SR renin and compound are added to a 384 capacity plate by an automated robot (BIOMEK). The plate is incubated for 60 minutes; upon completion the tGFP substrate is added.
# The IC50 is determined by monitoring the increase in […] at 432/432 nm excitation, 530/475 nm emission with a cutoff at 515/455 nm, in a fluorometric plate reader.
row,Compound,pIC50
1,"COc1ccccc1COCCCOc1ccc(N2C(=O)CNC[C@@H]2COCc2ccc(Br)cc2)cc1 [Example 30, (6R)-6-(4-bromobenzyloxymethyl)-1-{4-[3-(2-methoxybenzyloxy)-propoxy]-phenyl}-piperazin-2-one]",< 6.00
2,"COc1ccc(COC[C@H]2CNCCN2c2ccc(OCCCOCc3ccccc3)cc2)cc1 [Example 34, (2R)-1-[4-(3-benzyloxypropoxy)-phenyl]-2-(4-methoxybenzyloxymethyl)-piperazine]",4.96
3,"c1ccc(COc2ccc(N3CCNC[C@@H]3COc3ccc4ccccc4c3)cc2)cc1 [Example 35, (2R)-1-(4-benzyloxyphenyl)-2-(naphthalen-2-yloxymethyl)-piperazine]",< 6.00
4,"COc1ccc(COC[C@H]2CNCCN2c2ccc(OCc3ccccc3)cc2)cc1 [Example 36, (2R)-1-(4-benzyloxyphenyl)-2-(4-methoxybenzyloxymethyl)-piperazine]",< 6.00
5,"COc1ccccc1COCCCOc1ccc(N2C(=O)CNC[C@@H]2COCc2ccccc2)cc1 [Example 45, (6R)-6-benzyloxymethyl-1-{4-[3-(2-methoxybenzyloxy)-propoxy]-phenyl}-piperazin-2-one]",5.15
6,"COc1ccccc1COCCCOc1ccc(N2C(=O)CNC[C@H]2COCc2ccc(F)cc2)cc1 [Example 46, (6S)-6-(4-fluorobenzyloxymethyl)-1-{4-[3-(2-methoxybenzyloxy)-propoxy]-phenyl}-piperazin-2-one]",5.25
7,"O=C(NCCc1ccccc1)c1ccc(N2C(=O)CNC[C@@H]2COc2ccc3ccccc3c2)cc1 [Example 47, 4-[(2R)-2-(naphthalen-2-yloxymethyl)-6-oxopiperazin-1-yl]-N-phenethylbenzamide]",< 6.00
8,"CCOCCNC(=O)c1ccc(N2C(=O)CNC[C@@H]2COc2ccc3ccccc3c2)cc1 [Example 49, N-(2-ethoxyethyl)-4-[(2R)-2-(naphthalen-2-yloxymethyl)-6-oxopiperazin-1-yl]-benzamide]",< 6.00
9,"COc1cccc(CCNC(=O)c2ccc(N3C(=O)CNC[C@@H]3COc3ccc4ccccc4c3)cc2)c1 [Example 50, N-[2-(3-methoxyphenyl)-ethyl]-4-[(2R)-2-(naphthalen-2-yloxymethyl)-6-oxopiperazin-1-yl]-benzamide]",< 6.00
10,"O=C(NCCOc1ccccc1)c1ccc(N2C(=O)CNC[C@@H]2COc2ccc3ccccc3c2)cc1 [Example 53, 4-[(2R)-2-(naphthalen-2-yloxymethyl)-6-oxopiperazin-1-yl]-N-(2-phenoxyethyl)-benzamide]",< 6.00
11,"COc1ccccc1COCCCOc1ccc(N2C(=O)CNC[C@@H]2COc2ccc3c(c2)CCCN3C(C)=O)cc1 [Example 54, (6R)-6-(1-acetyl-1,2,3,4-tetrahydroquinolin-6-yloxymethyl)-1-{4-[3-(2-methoxybenzyloxy)-propoxy]-phenyl}-piperazin-2-one]",< 6.00
12,"COc1ccccc1COCCCOc1ccc(N2C(=O)CNC[C@@H]2COC(=O)c2ccc3ccccc3c2)cc1 [Example 58, naphthalene-2-carboxylic acid (2R)-1-{4-[3-(2-methoxybenzyloxy)-propoxy]-phenyl}-6-oxopiperazin-2-yl methyl ester]",< 6.00

# Continued by rising pIC50, values first:
row,pIC50,Compound
1,5.40,"COc1ccc(COC[C@H]2CNCCN2c2ccc(OCCCOCc3ccccc3OC)cc2)cc1 [Example 33, (2R)-2-(4-methoxybenzyloxymethyl)-1-{4-[3-(2-methoxy-benzyloxy)-propoxy]-phenyl}-piperazine]"
2,5.42,"COCCCOc1cc(N2C(=O)CNC[C@@H]2COc2ccc3ccccc3c2)ccc1OC [Example 48, (6R)-1-[4-methoxy-3-(3-methoxypropoxy)-phenyl]-6-(naphthalen-2-yloxymethyl)-piperazin-2-one]"
3,5.46,"COc1ccccc1COCCCOc1ccc(N2C(=O)CNC[C@@H]2COc2ccc3ncccc3c2)cc1 [Example 52, (6R)-1-{4-[3-(2-methoxybenzyloxy)-propoxy]-phenyl}-6-(quinolin-6-yloxymethyl)-piperazin-2-one]"
4,5.85,"c1ccc(COCCCOc2ccc(N3CCNC[C@@H]3COc3ccc4ccccc4c3)cc2)cc1 [Example 38, (2R)-1-[4-(3-benzyloxypropoxy)-phenyl]-2-(naphthalen-2-yloxymethyl)-piperazine]"
5,6.05,"COc1ccccc1COCCCOc1c(F)cc(N2C(=O)CNC[C@@H]2COc2ccc3ccccc3c2)cc1F [Example 43, (6R)-1-{3,5-difluoro-4-[3-(2-methoxybenzyloxy)-propoxy]-phenyl}-6-(naphthalen-2-yloxymethyl)-piperazin-2-one]"
6,6.09,"COc1ccccc1COCCCOc1ccc(N2C(=O)CNC[C@@H]2COc2ccc3cccnc3c2)cc1 [Example 41, (6R)-1-{4-[3-(2-methoxybenzyloxy)-propoxy]-phenyl}-6-(quinolin-7-yloxymethyl)-piperazin-2-one]"
7,6.28,"COc1ccccc1COCCCOc1ccc(N2C(=O)CNC[C@@H]2COc2ccc3ccncc3c2)cc1 [Example 51, (6R)-6-(isoquinolin-7-yloxymethyl)-1-{4-[3-(2-methoxybenzyloxy)-propoxy]-phenyl}-piperazin-2-one]"
8,6.36,"COc1ccccc1COCCCOc1ccc(N2CCNC[C@@H]2COc2ccc3c(c2)CCCC3)cc1 [Example 40, (2R)-1-{4-[3-(2-methoxybenzyloxy)-propoxy]-phenyl}-2-(5,6,7,8-tetrahydronaphthalen-2-yloxymethyl)-piperazine]"
9,6.36,"COc1ccccc1COCCCOc1ccc(N2C(=O)CNC[C@@H]2COc2ccc3c(c2)N(CC(N)=O)CCC3)cc1 [Example 56, 2-[7-(1-{4-[3-(2-methoxybenzyloxy)-propoxy]-phenyl}-6-oxopiperazin-(2R)-ylmethoxy)-3,4-dihydro-2H-quinolin-1-yl]-acetamide]"
10,6.42,"COc1ccccc1COCCCOc1ccc(N2C(=O)CNC[C@@H]2COc2ccc3c(c2)N(Cc2cscn2)CCC3)cc1 [Example 55, (6R)-1-{4-[3-(2-methoxybenzyloxy)-propoxy]-phenyl}-6-(1-thiazol-4-ylmethyl-1,2,3,4-tetrahydroquinolin-7-yloxymethyl)-piperazin-2-one]"
11,6.82,"COc1ccccc1COCCCOc1ccc(N2CCNC[C@@H]2COc2ccc3ccccc3c2)cc1 [Example 32, (2R)-1-{4-[3-(2-methoxybenzyloxy)-propoxy]-phenyl}-2-(naphthalen-2-yloxymethyl)-piperazine]"
12,6.82,"COc1ccccc1COCCCOc1ccc(N2C(=O)CNC[C@@H]2COc2ccc3ccccc3c2)cc1F [Example 39, (6R)-1-{3-fluoro-4-[3-(2-methoxybenzyloxy)-propoxy]-phenyl}-6-(naphthalen-2-yloxymethyl)-piperazin-2-one]"
13,6.91,"COc1ccccc1COCCCOc1ccc(N2C(=O)CNC[C@@H]2COc2ccc3c(c2)NCCC3)cc1 [Example 42, (6R)-1-{4-[3-(2-methoxybenzyloxy)-propoxy]-phenyl}-6-(1,2,3,4-tetrahydroquinolin-7-yloxymethyl)-piperazin-2-one]"
14,7.19,"COc1ccccc1COCCCOc1ccc(N2C(=O)CNC[C@@H]2COc2ccc3c(c2)N(CCO)CCC3)cc1 [Example 57, (6R)-6-[1-(2-hydroxyethyl)-1,2,3,4-tetrahydroquinolin-7-yloxymethyl]-1-{4-[3-(2-methoxybenzyloxy)-propoxy]-phenyl}-piperazin-2-one]"
15,7.27,"COc1ccccc1COCCCOc1ccc(N2C(=O)CNC[C@@H]2COc2ccc3ccccc3c2)cc1 [Example 37, (6R)-1-{4-[3-(2-methoxybenzyloxy)-propoxy]-phenyl}-6-(naphthalen-2-yloxymethyl)-piperazin-2-one]"
16,7.43,"COc1ccccc1COCCCOc1ccc(N2C(=O)CNC[C@@H]2COc2ccc3c(c2)N(CCCO)CCC3)cc1 [Example 44, (6R)-6-[1-(3-hydroxypropyl)-1,2,3,4-tetrahydroquinolin-7-yloxymethyl]-1-{4-[3-(2-methoxybenzyloxy)-propoxy]-phenyl}-piperazin-2-one]"
17,9.38,"COc1ccccc1COCCCOc1ccc(N2C(=O)CNC[C@@H]2COc2ccc3c(c2)N(CCOC(C)=O)CCC3)cc1 [Example 31, acetic acid 2-[7-(1-{4-[3-(2-methoxybenzyloxy)-propoxy]-phenyl}-6-oxopiperazin-(2R)-ylmethoxy)-3,4-dihydro-2H-quinolin-1-yl]-ethyl ester]"
